Results published in US20240116985A1, “STAPLED PEPTIDES AND METHODS THEREOF” (priority 2020, published 2024).

Assays:
[1] = target: T1, full-length beta-Catenin (Uniprot ID P35222) (Homo sapiens, UniProt P35222); test: Fluorescence polarization IC50 (beta-catenin / 5FAM-TCF4 10-53 competition); type: binding; settings: fluorescence polarization; read-out: beta-Catenin FP IC50
T1 construct: 10 nM full-length beta-Catenin (Uniprot ID P35222)
T1 sequence (P35222 1-781): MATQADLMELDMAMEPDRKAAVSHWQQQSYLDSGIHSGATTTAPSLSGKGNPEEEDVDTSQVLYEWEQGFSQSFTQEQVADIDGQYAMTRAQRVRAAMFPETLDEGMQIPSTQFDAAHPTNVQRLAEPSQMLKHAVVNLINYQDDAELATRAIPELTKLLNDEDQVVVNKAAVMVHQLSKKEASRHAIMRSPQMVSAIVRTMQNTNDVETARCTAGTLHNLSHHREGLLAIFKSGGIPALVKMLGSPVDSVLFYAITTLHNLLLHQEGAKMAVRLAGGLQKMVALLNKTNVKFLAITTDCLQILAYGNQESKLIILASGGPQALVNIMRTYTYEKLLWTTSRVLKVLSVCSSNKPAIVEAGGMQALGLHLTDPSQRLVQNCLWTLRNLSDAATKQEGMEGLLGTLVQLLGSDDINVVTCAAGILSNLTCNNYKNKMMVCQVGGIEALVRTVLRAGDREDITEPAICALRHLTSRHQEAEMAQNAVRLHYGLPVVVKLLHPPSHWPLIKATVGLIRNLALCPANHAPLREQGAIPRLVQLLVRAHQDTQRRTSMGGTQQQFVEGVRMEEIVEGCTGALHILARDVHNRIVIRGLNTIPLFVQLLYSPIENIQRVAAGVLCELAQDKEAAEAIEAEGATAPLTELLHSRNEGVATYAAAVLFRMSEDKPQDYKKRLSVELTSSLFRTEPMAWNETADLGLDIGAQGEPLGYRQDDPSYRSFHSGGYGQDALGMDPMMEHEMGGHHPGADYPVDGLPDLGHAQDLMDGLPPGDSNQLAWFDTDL

[2] = target: T2, beta-catenin/TCF4 engagement (Homo sapiens, UniProt P35222); test: Nano-BRET target engagement assay (B-cat-Halo & TCF4-Luc in HEK293 cells); type: cell-based; settings: absolute IC50; read-out: NanoBRET Abs IC50
T2 construct: expressed in transfected cells; host or cells: HEK293
T2 sequence (P35222 1-781): T1 sequence (P35222 1-781)

SMILES | IC50 [1] [nM] | IC50 [2] [nM]
CC(=O)N1CCC[C@]12CC=CCCCC1(CCCC=CCCCOC(=O)N3CC[C@@](C(=O)N[C@@H](Cc4ccccc4Cl)C(=O)N[C@@H](Cc4csc5ccccc45)C(=O)N[C@H](CO)[C@@H](C)O)(C3)NC(=O)[C@H](CC(C)C)NC(=O)[C@H](Cc3ccccc3)NC(=O)[C@H](C)NC(=O)[C@H](C)NC(=O)[C@H](CC(=O)O)NC(=O)[C@H](CC(=O)O)NC1=O)NC(=O)[C@H](CC(C)(C)C)NC(=O)[C@H](CC(=O)O)NC2=O (stereo partly drawn) [I-1249, Ac-PL3-Asp-Npg-B5-Asp-Asp-Ala-Ala-Phe-Leu-PyrS2-2C1F-BztA-Thro1] | 17 | 25200
CC(=O)N1CCC[C@]12CC=CCCCC1(CCCC=CCCCOC(=O)N3CC[C@@](C(=O)N[C@@H](Cc4ccsc4)C(=O)N[C@@H](Cc4csc5ccccc45)C(=O)N[C@@H](CCC(N)=O)C(N)=O)(C3)NC(=O)[C@H](CC(C)C)NC(=O)[C@H](Cc3ccccc3)NC(=O)[C@H](C)NC(=O)[C@H](C)NC(=O)[C@H](Cc3c[nH]c4ccccc34)NC(=O)[C@H](CC(=O)O)NC1=O)NC(=O)[C@H](CC(C)(C)C)NC(=O)[C@H](CC(=O)O)NC2=O (stereo partly drawn) [I-1439, Ac-PL3-Asp-Npg-B5-Asp-Trp-Ala-Ala-Phe-Leu-PyrS2-3Thi-BztA-Gln-NH2] | 349 | > 20000
CC(=O)N1CCC[C@]12CC=CCCCC1(CCCC=CCCCOC(=O)N3CC[C@@](C(=O)N[C@@H](Cc4ccsc4)C(=O)N[C@@H](Cc4csc5ccccc45)C(=O)N[C@@H](CCC(N)=O)C(N)=O)(C3)NC(=O)[C@H](CC(C)C)NC(=O)[C@H](Cc3ccccc3)NC(=O)[C@H](CCCCNC(=O)COCCOCCNC(=O)CC[C@@H](C)[C@H]3CC[C@H]4[C@@H]5CC[C@@H]6C[C@H](O)CC[C@]6(C)[C@H]5CC[C@]34C)NC(=O)[C@H](C)NC(=O)[C@H](CC(=O)O)NC(=O)[C@H](CC(=O)O)NC1=O)NC(=O)[C@H](CC(C)(C)C)NC(=O)[C@H](CC(=O)O)NC2=O (stereo partly drawn) [I-1474, Ac-PL3-Asp-Npg-B5-Asp-Asp-Ala-[lithocholate-PEG2]-Lys-Phe-Leu-PyrS2-3Thi-BztA-Gln-NH2] | 41 | > 20000
CC(=O)N1CCC[C@]12CC=CCCCC1(CCCC=CCCCOC(=O)N3CC[C@@](C(=O)N[C@@H](Cc4ccsc4)C(=O)N[C@@H](Cc4csc5ccccc45)C(=O)N[C@@H](CCC(N)=O)C(N)=O)(C3)NC(=O)[C@H](CC(N)=O)NC(=O)[C@H](Cc3ccccc3)NC(=O)[C@H](C)NC(=O)[C@H](C)NC(=O)[C@H](CC(=O)O)NC(=O)[C@H](CC(=O)O)NC1=O)NC(=O)[C@H](CC(C)(C)C)NC(=O)[C@H](CC(N)=O)NC2=O (stereo partly drawn) [I-1220, Ac-PL3-Asn-Npg-B5-Asp-Asp-Ala-Ala-Phe-Asn-PyrS2-3Thi-BztA-Gln-NH2] | 11 | 17300
CC(=O)N1CCC[C@]12CC=CCCCC1(CCCC=CCCCCCC[C@@](C)(C(=O)N[C@@H](Cc3ccsc3)C(=O)N[C@@H](Cc3csc4ccccc34)C(=O)N[C@@H](CCC(N)=O)C(N)=O)NC(=O)[C@H](CCO)NC(=O)[C@H](Cc3ccccc3)NC(=O)[C@H](C)NC(=O)[C@H](C)NC(=O)[C@H](CC(=O)O)NC(=O)[C@H](CC(=O)O)NC1=O)NC(=O)[C@H](CC(C)(C)C)NC(=O)[C@H](CC(=O)O)NC2=O (stereo partly drawn) [I-1389, Ac-PL3-Asp-Npg-B5-Asp-Asp-Ala-Ala-Phe-Hse-S8-3Thi-BztA-Gln-NH2] | 9 | 9200
CCCC[C@@H]1NC(=O)[C@H](CC(=O)O)NC(=O)[C@]2(CC=CCCCC3(CCCC=CCCCOC(=O)N4CC[C@@](C(=O)N[C@@H](Cc5ccsc5)C(=O)N[C@@H](Cc5csc6ccccc56)C(=O)N[C@@H](CCC(N)=O)C(N)=O)(C4)NC(=O)[C@H](CCCC)NC(=O)[C@H](Cc4ccccc4)NC(=O)[C@H](C)NC(=O)[C@H](C)NC(=O)[C@H](CC(=O)O)NC(=O)[C@H](CC(=O)O)NC3=O)NC1=O)CCCN2C(C)=O (stereo partly drawn) [I-1401, Ac-PL3-Asp-nLeu-B5-Asp-Asp-Ala-Ala-Phe-nLeu-PyrS2-3Thi-BztA-Gln-NH2] | 5 | 21400
CC(=O)N1CCC[C@]12CC=CCCCC1(CCCC=CCCCOC(=O)N3CC[C@@](C(=O)N[C@@H](Cc4ccsc4)C(=O)N[C@@H](Cc4csc5ccccc45)C(=O)N[C@@H](CCC(N)=O)C(N)=O)(C3)NC(=O)[C@H](CC(C)C)NC(=O)[C@H](Cc3ccccc3)NC(=O)[C@H](CCCCNC(=O)COCCOCCNC(=O)C34CC5(C)CC(C)(CC(C)(C5)C3)C4)NC(=O)[C@H](C)NC(=O)[C@H](CC(=O)O)NC(=O)[C@H](CC(=O)O)NC1=O)NC(=O)[C@H](CC(C)(C)C)NC(=O)[C@H](CC(=O)O)NC2=O (stereo partly drawn) [I-1476, Ac-PL3-Asp-Npg-B5-Asp-Asp-Ala-[Me3AdamantC-PEG2]-Lys-Phe-Leu-PyrS2-3Thi-BztA-Gln-NH2] | 16 | > 20000

Continued, values first:

IC50 [1] [nM] | IC50 [2] [nM] | SMILES
50 | 9000 | CC(=O)N1CCC[C@]12CC=CCCCC1(CCCC=CCCCOC(=O)N3CC[C@@](C(=O)N[C@@H](Cc4ccccc4C(F)(F)F)C(=O)N[C@@H](Cc4ccc(Cl)cc4)C(=O)N[C@@H](C)C(N)=O)(C3)NC(=O)[C@H](CC(C)C)NC(=O)[C@H](Cc3ccccc3)NC(=O)[C@H](C)NC(=O)[C@H](CCC(N)=O)NC(=O)[C@H](Cc3cccc(C(=O)O)c3)NC(=O)[C@H](CC(=O)O)NC1=O)NC(=O)[C@H](CC(C)(C)C)NC(=O)[C@H](CC(=O)O)NC2=O (stereo partly drawn) [I-2223, Ac-PL3-Asp-Npg-B5-Asp-3COOHF-Gln-Ala-Phe-Leu-PyrS2-2F3MeF-4C1F-Ala-NH2]
12 | > 20000 | C#CC(=O)N1CCC[C@]12CC=CCCCC1(CCCC=CCCCOC(=O)N3CC[C@@](C(=O)N[C@@H](Cc4ccccc4Cl)C(=O)N[C@@H](Cc4csc5ccccc45)C(=O)N[C@@H](C)C(N)=O)(C3)NC(=O)[C@H](CC(C)C)NC(=O)[C@H](Cc3ccccc3)NC(=O)[C@H](C)NC(=O)[C@H](C)NC(=O)[C@H](Cc3cccc(C(=O)O)c3)NC(=O)[C@H](CC(=O)O)NC1=O)NC(=O)[C@H](CC(C)(C)C)NC(=O)[C@H](CC(=O)O)NC2=O (stereo partly drawn) [I-2403, PropynOH-PL3-Asp-Npg-B5-Asp-3COOHF-Ala-Ala-Phe-Leu-PyrS2-2C1F-BztA-Ala-NH2]
147 | > 20000 | CC(=O)N1CCC[C@]12CC=CCCCC1(CCCC=CCCCOC(=O)N3CC[C@@](C(=O)N[C@@H](Cc4ccsc4)C(=O)N[C@@H](Cc4csc5ccccc45)C(=O)N[C@@H](CC(N)=O)C(N)=O)(C3)NC(=O)[C@H](CC(N)=O)NC(=O)[C@H](Cc3ccccc3)NC(=O)[C@H](C)NC(=O)C(C)(C)NC(=O)[C@H]([C@@H](C)O)NC(=O)[C@H](CC(N)=O)NC1=O)NC(=O)[C@H](CC(C)(C)C)NC(=O)[C@H](CC(=O)O)NC2=O (stereo partly drawn) [I-2415, Ac-PL3-Asp-Npg-B5-Asn-Thr-Aib-Ala-Phe-Asn-PyrS2-3Thi-BztA-Asn-NH2]
8 | 5900 | CC(=O)N1CCC[C@]12CC=CCCCC1(CCCC=CCCCOC(=O)N3CC[C@@](C(=O)N[C@@H](Cc4ccsc4)C(=O)N[C@@H](Cc4csc5ccccc45)C(=O)N[C@@H](CCC(N)=O)C(N)=O)(C3)NC(=O)[C@H](CC(C)C)NC(=O)[C@H](Cc3ccccc3)NC(=O)[C@H](C)NC(=O)[C@H](C)NC(=O)[C@H](CCN(CC(=O)O)C(=O)c3ccccn3)NC(=O)[C@H](CC(=O)O)NC1=O)NC(=O)[C@H](CC(C)(C)C)NC(=O)[C@H](CC(=O)O)NC2=O (stereo partly drawn) [I-2247, Ac-PL3-Asp-Npg-B5-Asp-[Pic]GAbu-Ala-Ala-Phe-Leu-PyrS2-3Thi-BztA-Gln-NH2]
10 | 4600 | CC(=O)N1CCC[C@]12CC=CCCCC1(CCCC=CCCCOC(=O)N3CC[C@@](C(=O)N[C@@H](Cc4ccccc4Cl)C(=O)N[C@@H](Cc4csc5ccccc45)C(=O)N[C@@H](CCC(N)=O)C(N)=O)(C3)NC(=O)[C@H]([C@@H](C)O)NC(=O)[C@H](Cc3ccccc3)NC(=O)[C@H](C)NC(=O)C(C)(C)NC(=O)[C@H](CN(CC(=O)O)CC(F)(F)F)NC(=O)[C@H](CC(=O)O)NC1=O)NC(=O)[C@H](CC(C)(C)C)NC(=O)[C@H](CC(=O)O)NC2=O (stereo partly drawn) [I-1693, Ac-PL3-Asp-Npg-B5-Asp-TfeGA-Aib-Ala-Phe-Thr-PyrS2-2C1F-BztA-Gln-NH2]
34 | 5100 | CC(=O)N1CCC[C@]12CC=CCCCC1(CCCC=CCCCOC(=O)N3CC[C@@](C(=O)N[C@@H](Cc4ccccc4C(F)(F)F)C(=O)N[C@@H](Cc4ccc(Cl)c(Cl)c4)C(=O)N[C@@H](CO)C(N)=O)(C3)NC(=O)[C@H](CC(C)C)NC(=O)[C@H](Cc3ccccc3)NC(=O)[C@H](C)NC(=O)[C@H](C)NC(=O)[C@H](Cc3cccc(C(=O)O)c3)NC(=O)[C@H](CC(=O)O)NC1=O)NC(=O)[C@H](CC(C)(C)C)NC(=O)[C@H](CC(=O)O)NC2=O (stereo partly drawn) [I-2218, Ac-PL3-Asp-Npg-B5-Asp-3COOHF-Ala-Ala-Phe-Leu-PyrS2-2F3MeF-34C1F-Ser-NH2]
